Values of other authors as cited in patent EP0553294B1, “THE MANUFACTURE OF COMPOSITIONS FOR THE TREATMENT OF CELL PRO[…]” (AMGEN INC., priority 1990, dated 1992).

System: Kaposi's Sarcoma
Settings: administered alone; general statement, no test described

## Cc1cn([C@H]2C[C@H](N=[N+]=[N-])[C@@H](CO)O2)c(=O)[nH]c1=O [AZT, zidovudine]
  effectiveness on Kaposi's Sarcoma: not effective
